Assay: Acid dissociation constant of the compound.
Format: ADME

SMILES	pKa
O=C(O)CSc1c(F)c(F)c(C(=O)O)c(-c2c3cc(F)c(=O)cc-3oc3cc(O)c(F)cc23)c1F	4.8
O=C(O)c1ccc(C(=O)O)c(-c2c3ccc(=O)cc-3oc3cc(O)ccc23)c1 [6-Carboxyfluorescein]	6.4
